How the values were obtained:
[1] = system: HT-29 cells; experiment: Protection against programmed necrosis of HT-29 cells (TNF α/Smac mimetic/Z-VAD-FMK, CCK8); assay type: cell-based; details: Homo sapiens, TNF α/Smac mimetic/Z-VAD-FMK induced 24 h, CCK8, read-out: HT-29 (EC50)
[2] = molecular target: RIPK1 (Homo sapiens (Human), UniProt Q13546); experiment: In vitro kinase assay (Eurofins Kinase Profiler), IC50; assay type: biochemical; details: 0.001-10 μM, read-out: RIPK 1 (IC50)
Sequence of RIPK1 (Q13546 whole entry): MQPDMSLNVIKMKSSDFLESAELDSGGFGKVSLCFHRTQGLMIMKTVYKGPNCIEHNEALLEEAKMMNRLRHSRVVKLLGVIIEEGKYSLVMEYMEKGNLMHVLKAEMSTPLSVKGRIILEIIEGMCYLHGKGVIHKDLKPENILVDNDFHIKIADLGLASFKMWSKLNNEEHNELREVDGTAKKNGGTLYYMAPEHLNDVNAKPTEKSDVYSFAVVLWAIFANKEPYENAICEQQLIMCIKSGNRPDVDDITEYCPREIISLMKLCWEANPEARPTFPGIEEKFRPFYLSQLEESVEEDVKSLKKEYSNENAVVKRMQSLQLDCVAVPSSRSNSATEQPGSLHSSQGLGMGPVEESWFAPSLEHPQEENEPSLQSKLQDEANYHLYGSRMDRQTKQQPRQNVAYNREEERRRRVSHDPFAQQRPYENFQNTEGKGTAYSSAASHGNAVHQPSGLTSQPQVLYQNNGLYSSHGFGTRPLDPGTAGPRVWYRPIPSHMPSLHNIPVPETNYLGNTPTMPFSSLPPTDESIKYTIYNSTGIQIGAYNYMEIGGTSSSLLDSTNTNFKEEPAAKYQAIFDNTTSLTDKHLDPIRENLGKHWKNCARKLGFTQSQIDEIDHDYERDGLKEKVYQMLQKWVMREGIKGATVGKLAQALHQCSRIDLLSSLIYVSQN

| SMILES | EC50 [1] | IC50 [2] |
| --- | --- | --- |
| CC(C)Cn1cc(C(=O)N[C@@H](C)c2cccc(F)c2)c2cc(-c3ccn4nc(NC(=O)C(C)C)nc4c3)ccc21 [Compound 153] | 100 to 1000 nM | 100 to 1000 nM |
| COCCn1cc(C(=O)N[C@@H](C)c2cccc(F)c2)c2cc(-c3ccn4nc(NC(=O)C5CC5)nc4c3)ccc21 [Compound 154] | 1 to 10 nM | 10 to 100 nM |
| C[C@H](NC(=O)c1cn(C)c2ccc(-c3ccc4nc(NC(=O)C5CC5)nn4c3)cc12)c1cccc(F)c1 [Compound 155] | 1 to 10 nM | 10 to 100 nM |
| C[C@@H](NC(=O)c1cn(C)c2ccc(-c3ccn4nc(NC(=O)C5CC5)nc4c3)cc12)c1cccc(F)c1 [Compound 156] | < 1 nM | 10 to 100 nM |
| CC(C)C(=O)Nc1nc2cc(-c3cnc4[nH]cc(C(=O)N[C@@H](C)c5cccc(F)c5)c4c3)ccn2n1 [Compound 157] | 1 to 10 nM | 10 to 100 nM |
| CC(C)C(=O)Nc1nc2cc(-c3cnc4c(c3)c(C(=O)N[C@@H](C)c3cccc(F)c3)cn4C)ccn2n1 [Compound 158] | < 1 nM | 1 to 10 nM |
| CC(C)C(=O)Nc1nc2cc(-c3cn(C)c4ncc(C(=O)N[C@@H](C)c5cccc(F)c5)cc34)ccn2n1 [Compound 159] | 100 to 1000 nM | 100 to 1000 nM |
| C[C@H](NC(=O)c1ccc2ncc(-c3ccn4nc(NC(=O)C5CC5)nc4c3)cc2c1)c1cccc(F)c1 [Compound 160] | 10 to 100 nM | 10 to 100 nM |
| C[C@H](NC(=O)c1cn(C)c2ccc(-c3ccn4nc(NC(=O)C5CCCO5)nc4c3)cc12)c1cccc(F)c1 (stereo partly shown) [Compound 161] | < 1 nM | 1 to 10 nM |
| C[C@H](NC(=O)c1cn(C)c2ccc(-c3ccn4nc(NC(=O)N5CC[C@@H](O)C5)nc4c3)cc12)c1cccc(F)c1 [Compound 162, N-((S)-1-(3-fluorophenyl)ethyl)-5-(2-((R)-3-hydroxypyrrolidine-1-carboxamido)-[1,2,4]triazolo[1,5-a]pyridin-7-yl)-1-methyl-1H-indole-3-carboxamide] | 10 to 100 nM | 10 to 100 nM |
| C[C@H](NC(=O)c1cn(C)c2ccc(-c3ccn4nc(NC(=O)N5CC[C@H](O)C5)nc4c3)cc12)c1cccc(F)c1 [Compound 163] | 10 to 100 nM | 100 to 1000 nM |
| C[C@H](NC(=O)c1cn(C)c2ccc(-c3ccn4nc(NC(=O)N5CCC[C@H]5CO)nc4c3)cc12)c1cccc(F)c1 [Compound 164] | 1 to 10 nM | 100 to 1000 nM |
| C[C@H](NC(=O)c1cn(C)c2ccc(-c3ccn4nc(NC(=O)N[C@@H](C)CO)nc4c3)cc12)c1cccc(F)c1 [Compound 165] | < 1 nM | 10 to 100 nM |
| CC(NC(=O)c1cn(C)c2ccc(-c3ccn4nc(NC(=O)C5CC5)nc4c3)cc12)c1ccc(F)c(F)c1 (stereo not shown) [Compound 167] | 10 to 100 nM | 10 to 100 nM |
| C[C@H](NC(=O)c1cn(C)c2ccc(-c3ccn4nc(NC(=O)N5CCCC(O)C5)nc4c3)cc12)c1cccc(F)c1 (stereo partly shown) [Compound 169] | < 1 nM | 1 to 10 nM |
| C[C@H](NC(=O)c1cn(C)c2ccc(-c3ccn4nc(NC(=O)N5CCC(O)CC5)nc4c3)cc12)c1cccc(F)c1 [Compound 170] | < 1 nM | 1 to 10 nM |
| CC(C)CNc1nc2cc(-c3ccc4c(c3)c(C(=O)N[C@@H](C)c3cccc(F)c3)cn4C)ccn2n1 [Compound 171] | < 1 nM | 1 to 10 nM |
| C[C@H](NC(=O)c1cn(C)c2ccc(-c3ccn4nc(NC(=O)N5CC(O)C5)nc4c3)cc12)c1cccc(F)c1 [Compound 172] | 100 to 1000 nM | ≥ 1000 nM |
| Cn1cc(C(=O)N2CCC[C@H]2c2cccc(F)c2)c2cc(-c3ccn4nc(NC(=O)C5CC5)nc4c3)ccc21 [Compound 173] | < 1 nM | 1 to 10 nM |
| CC(C)C(=O)Nc1nc2cc(-c3ccc4c(c3)c(C(=O)N[C@@H](C)c3ccncc3)cn4C)ccn2n1 [Compound 175] | 10 to 100 nM | 10 to 100 nM |
| C[C@H](NC(=O)c1cn(C)c2ccc(-c3ccn4nc(NC(=O)C5CC5)nc4c3)cc12)c1ccncc1 [Compound 176] | 100 to 1000 nM | 100 to 1000 nM |
| C[C@H](NC(=O)c1cn(C)c2ccc(-c3ccn4nc(NC(=O)N5CCC[C@@H]5CO)nc4c3)cc12)c1cccc(F)c1 [Compound 177] | 10 to 100 nM | 10 to 100 nM |
| C[C@H](NC(=O)c1cn(C)c2ccc(-c3ccn4nc(NC(=O)N5CCNCC5)nc4c3)cc12)c1cccc(F)c1 [Compound 178] | 1 to 10 nM | 1 to 10 nM |
| C[C@H](NC(=O)c1cn(C)c2ccc(-c3ccn4nc(NC(=O)[C@H]5CCCN5)nc4c3)cc12)c1cccc(F)c1 [Compound 179] | < 1 nM | < 1 nM |

| SMILES | EC50 [1] | IC50 [2] |
| --- | --- | --- |
| C[C@H](NC(=O)c1cn(C)c2ccc(-c3ccn4nc(NC(=O)[C@@H]5CCCN5)nc4c3)cc12)c1cccc(F)c1 [Compound 180] | < 1 nM | 1 to 10 nM |
| COc1ccc([C@H](C)NC(=O)c2cn(C)c3ccc(-c4ccn5nc(NC(=O)C6CC6)nc5c4)cc23)cc1F [Compound 181] | 100 to 1000 nM | 100 to 1000 nM |
| C[C@H](NC(=O)c1cn(C)c2ccc(-c3ccn4nc(NC(=O)C5CC5)nc4c3)cc12)c1ccc(F)c(F)c1 [Compound 182] | < 1 nM | 1 to 10 nM |
| Cn1cc(C(=O)N[C@H]2CCc3ccc(F)cc32)c2cc(-c3ccn4nc(NC(=O)C5CC5)nc4c3)ccc21 [Compound 183] | 100 to 1000 nM | 100 to 1000 nM |
| Cn1cc(C(=O)N[C@H]2CCCc3ccc(F)cc32)c2cc(-c3ccn4nc(NC(=O)C5CC5)nc4c3)ccc21 [Compound 184] | 100 to 1000 nM | 100 to 1000 nM |
| Cn1cc(C(=O)N2CCCC2c2cccc(F)c2)c2cc(-c3ccn4nc(NC(=O)C5CC5)cc4n3)ccc21 (stereo not shown) [Compound 185] | < 1 nM | 1 to 10 nM |
| C[C@H](NC(=O)c1cn(C)c2ncc(-c3ccn4nc(NC(=O)C5CC5)nc4c3)cc12)c1cccc(F)c1 [Compound 186] | 100 to 1000 nM | 100 to 1000 nM |
| Cn1cc(C(=O)N2CCCC2c2cccc(F)c2)c2cc(-c3ccc4nc(NC(=O)C5CC5)cn4n3)ccc21 (stereo not shown) [Compound 187] | < 1 nM | < 1 nM |
| Cn1cc(C(=O)N[C@H]2CCCc3ccccc32)c2cc(-c3ccc4nc(NC(=O)C5CC5)cn4n3)ccc21 [Compound 188] | 100 to 1000 nM | 100 to 1000 nM |
| Cc1cccc(C2CCCN2C(=O)c2cn(C)c3ccc(-c4ccn5nc(NC(=O)C6CC6)nc5c4)cc23)c1 (stereo not shown) [Compound 189] | 100 to 1000 nM | 100 to 1000 nM |
| Cn1cc(C(=O)N2CCCC2c2cc(F)ccc2F)c2cc(-c3ccn4nc(NC(=O)C5CC5)nc4c3)ccc21 (stereo not shown) [Compound 190] | 1 to 10 nM | 1 to 10 nM |
| Cn1cc(C(=O)N2CCC[C@H]2c2cc(F)cc(F)c2)c2cc(-c3ccn4nc(NC(=O)C5CC5)nc4c3)ccc21 [Compound 192] | < 1 nM | < 1 nM |
| Cn1cc(C(=O)N2CCC[C@H]2c2ccc(Cl)cc2)c2cc(-c3ccn4nc(NC(=O)C5CC5)nc4c3)ccc21 [Compound 194] | < 1 nM | < 1 nM |
| CNC(=O)Nc1nc2cc(-c3ccc4c(c3)c(C(=O)N[C@@H](C)c3cccc(F)c3)cn4C)ccn2n1 [Compound 195] | < 1 nM | < 1 nM |
| C[C@H](NC(=O)c1cn(C)c2ccc(-c3ccn4nc(N[C@@H](C)CO)nc4c3)cc12)c1cccc(F)c1 [Compound 196] | < 1 nM | 10 to 100 nM |
| CCn1cc(C(=O)N2CCC[C@H]2c2ccc(F)cc2)c2cc(-c3ccn4nc(NC(=O)C5CC5)nc4c3)cnc21 [Compound 197] | < 1 nM | 1 to 10 nM |
| CCn1cc(C(=O)N2CCC[C@H]2c2ccc(F)cc2)c2cc(-c3ccn4nc(NC(=O)[C@H](C)OC(C)=O)nc4c3)ccc21 [Compound 198] | 1 to 10 nM | 10 to 100 nM |
| CC[C@H](NC(=O)c1cn(CC)c2ccc(-c3ccn4nc(NC(=O)C5CC5)nc4c3)cc12)c1ccc(F)cc1 [Compound 199] | < 1 nM | 1 to 10 nM |
| CCn1cc(C(=O)N[C@H](c2ccc(F)cc2)C2CC2)c2cc(-c3ccn4nc(NC(=O)C5CC5)nc4c3)ccc21 [Compound 200] | < 1 nM | 10 to 100 nM |
| CCn1cc(C(=O)N2CCC[C@H]2c2ccc(F)cc2)c2cc(-c3ccn4nc(NC(=O)CN(C)C)nc4c3)ccc21 [Compound 201] | 1 to 10 nM | 10 to 100 nM |
| Cn1cc(C(=O)N2C(CO)CC[C@H]2c2ccc(F)cc2)c2cc(-c3ccn4nc(NC(=O)C5CC5)nc4c3)ccc21 (stereo partly shown) [Compound 202] | 10 to 100 nM | ≥ 1000 nM |
| Cn1cc(C(=O)N[C@@H](CO)c2ccc(F)cc2)c2cc(-c3ccn4nc(NC(=O)C5CC5)nc4c3)ccc21 [Compound 203] | < 1 nM | 10 to 100 nM |
| CCn1cc(C(=O)N2CCC[C@H]2c2ccc(F)cc2)c2cc(-c3ccn4nc(NC(=O)[C@@H](C)O)nc4c3)ccc21 [Compound 204] | < 1 nM | 10 to 100 nM |

Reference: patent US20230365546A1, “5-SUBSTITUTED INDOLE 3-AMIDE DERIVATIVES, PREPARATION METHOD AND USE THEREOF” (ORIGIANT PHARMACEUTICAL CO., LTD, priority 2020, published 2023)
